What was measured:
[1] = Body weight in OIPN study; type: in vivo, C57BL/6J mice; details: OIPN mice; CBC 20 mg/kg p.o., Duloxetine 25 mg/kg i.p.
Protocol: Body Weight—Animal body weights were measured before assigning the treatment groups and then on each day of the study. The last body weight measurement was performed upon endpoint sampling. Terminal body weights were not collected from animals found dead or euthanized moribund.

[2] = target: TRPA1 (Transient Receptor potential A1) channels (Homo sapiens, UniProt O75762); details: among phytocannabinoids; cited from earlier work
TRPA1 (Transient Receptor potential A1) channels, sequence (O75762 whole entry): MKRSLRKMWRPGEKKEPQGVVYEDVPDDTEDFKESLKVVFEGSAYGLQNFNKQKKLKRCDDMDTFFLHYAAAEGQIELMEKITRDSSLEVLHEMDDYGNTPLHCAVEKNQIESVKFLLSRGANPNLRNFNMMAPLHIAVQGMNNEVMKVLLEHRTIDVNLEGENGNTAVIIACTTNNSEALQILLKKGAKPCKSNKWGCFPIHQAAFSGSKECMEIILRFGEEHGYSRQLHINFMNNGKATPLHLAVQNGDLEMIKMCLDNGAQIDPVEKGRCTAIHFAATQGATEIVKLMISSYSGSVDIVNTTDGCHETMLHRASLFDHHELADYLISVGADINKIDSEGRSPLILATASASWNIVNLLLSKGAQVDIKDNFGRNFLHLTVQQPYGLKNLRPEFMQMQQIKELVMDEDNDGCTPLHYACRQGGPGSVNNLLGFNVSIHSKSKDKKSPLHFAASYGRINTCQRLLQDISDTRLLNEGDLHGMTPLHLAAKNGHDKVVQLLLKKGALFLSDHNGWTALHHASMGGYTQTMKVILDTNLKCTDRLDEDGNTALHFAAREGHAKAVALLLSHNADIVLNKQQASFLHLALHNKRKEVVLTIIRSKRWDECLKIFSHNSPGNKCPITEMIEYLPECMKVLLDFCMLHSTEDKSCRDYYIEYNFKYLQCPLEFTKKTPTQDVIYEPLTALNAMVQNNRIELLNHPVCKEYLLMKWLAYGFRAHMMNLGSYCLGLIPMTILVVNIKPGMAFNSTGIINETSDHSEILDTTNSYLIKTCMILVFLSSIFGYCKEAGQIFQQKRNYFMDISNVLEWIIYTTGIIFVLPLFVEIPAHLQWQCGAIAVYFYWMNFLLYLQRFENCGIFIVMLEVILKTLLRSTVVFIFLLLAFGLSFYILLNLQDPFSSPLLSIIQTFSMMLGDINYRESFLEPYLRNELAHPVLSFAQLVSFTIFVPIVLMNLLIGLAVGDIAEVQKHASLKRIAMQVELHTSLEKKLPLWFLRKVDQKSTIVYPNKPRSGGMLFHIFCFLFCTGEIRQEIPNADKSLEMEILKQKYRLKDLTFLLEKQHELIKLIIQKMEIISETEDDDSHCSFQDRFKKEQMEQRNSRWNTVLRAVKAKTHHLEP

[3] = tested on: SNL-induced motor phenotype; assay: Fine motor kinematic gait analysis (MotoRater) in SNL model; type: in vivo, Sprague-Dawley rats; details: for overall gait score, CBC compared to pregabalin: p: CBC 10 mg/kg vs. pregabalin 50 mg/kg; for Overall kinematic gait score, Vehicle vs. treatment: Summary / Overall kinematic gait score, Vehicle vs. treatment: Predicted (LS) mean diff.: between groups
Protocol: The treatment groups received the following test article mixtures: • Group 1: treated with vehicle (0.9% saline) • Group 2: treated with Pregabalin (50 mg/kg) • Group 3: treated with CBC (10 mg/kg)
Administration of Treatments. CBC (cannabichromene) formulation, the vehicle, or pregabalin treatment was administered according to Table 1 on study day 8 to all study animals, and on study day 10 to 6 animals per group. The dousing route of CBC or the vehicle were intragastric (p.o.), while pregabalin was administered intraperitoneally (i.p.). In addition to D8, pregabalin was administered on D9, at 2 h prior to the evf test. All animals of the pregabalin group were euthanized on D9, following the last test trial. The CBC was dissolved and diluted to one of the following vehicles:
Fine Motor Kinematic Gait Analysis. The subjected to gait analysis at the baseline and on study days 8, 9, 11, 14 and 17, at a minimum of 30 min after the evF test. The assay was carried out by MotoRater (TSE Systems, Homburg, Germany), with the walking mode. Prior to commencing the test, the essential body points (e.g. joints, limbs, nose, tail) were marked for tracking. The information of the gait performance was captured using a high speed camera (300 frames/second) from below and both sides. Next, the captured videos are converted to custom software. The raw data was obtained by tracking the marked points of the body from the videos recorded from all 3 dimensions. The raw data thus comprise correlation of the movements of different body points in coordinates related to the ground and each three dimensions.
Different gait patterns and movements were analyzed using a custom made automated analysis system. Information about altogether over a hundred kinematic parameters were attained. These comprised e.g:
All MotoRater data were analyzed for the distinct parameters, as well as for all combined parameters, using principal component analysis (PCA). The obtained results produce the model phenotype in gait analysis i.e. the difference between vehicle and cannabinoid treated animals regarding both individual parameters and PCA.
In addition to the baseline test, the motorater test was performed altogether four times over the course of behavioral study phase: • on D7, to assess the model-specific motor defects prior to dosing, • on D8, after finishing the 4-h evF, • on D8, after finishing the 8-h evF, and • on D9, after finishing the 24-h evF.
The kinematic assay was not performed to the animals before a minimum of 30 min after evF test.

[4] = Welfare observations in OIPN study; type: in vivo, C57BL/6J mice; details: CBC 20 mg/kg p.o., OIPN mice
Excerpt: Seven mice were disqualified from further study due to showing too mild cool allodynia.

[5] = BL (before dosing), vehicle vs. CBC 10 mg/kg group
[6] = D 8 5 h, vehicle vs. CBC 10 mg/kg
[7] = Table 8, BL (before dosing), vehicle vs. CBC 10 mg/kg group
[8] = Table 8, D 8 5 h, vehicle vs. CBC 10 mg/kg
[9] = within group, CBC 10 mg/kg p.o., pregabalin 50 mg/kg i.p.
[10] = within group, z-score, CBC 10 mg/kg p.o., pregabalin 50 mg/kg i.p.

Compound: CCCCCc1cc(O)c2c(c1)OC(C)(CCC=C(C)C)C=C2 (stereo not shown) [CBC, cannabichromene]
- body weight development from D22 onwards [1]: slower increase in body weight
- agonist potency at TRPA1 channels [2]: most potent agonist of all the phytocannabinoids
- overall gait score, CBC compared to pregabalin: p ([3]; 5 h PD): 0.07693
- overall gait score, CBC compared to pregabalin: p ([3]; 9 h PD): 0.04717
- Ankle ROM Deviation [degree]: Stats [3, 5]: 2.98
- Homolateral Interlimb coordination: Stats [3, 5]: 2.84
- Swing Speed Metric, Hind: Stats [3, 5]: −3.67
- Knee ROM Deviation [degree]: Stats ([3]; BL (before dosing), vehicle vs. treatment group): 2.88
- Overall kinematic gait score, Vehicle vs. treatment: Summary ([3]; Baseline (before SNL and dosing)): ns
- Overall kinematic gait score, Vehicle vs. treatment: Predicted (LS) mean diff. ([3]; Baseline (before SNL and dosing), z-score): −1
- overall Gait score compared to Vehicle ([3]; CBC 10 mg/kg): did not show a significant reduction in overall Gait score compared to Vehicle
- overall gait score, within group comparisons over time ([3]; CBC 10 mg/kg): did not identify a significant time-bound overall gait score difference
- Overall kinematic gait score, Vehicle vs. treatment: Summary ([3]; D7 (pre-dosing)): ns
- Overall kinematic gait score, Vehicle vs. treatment: Predicted (LS) mean diff. ([3]; D7 (pre-dosing), z-score): 0.1511
- Overall kinematic gait score, Vehicle vs. treatment: Summary ([3]; D8 5 h, CBC 10 mg/kg p.o., pregabalin 50 mg/kg i.p.): ns
- Hip Angle, Max [degree]: Stats [3, 6]: 4.29
- Knee Angle, Min [degree]: Stats [3, 6]: 3.78
- Mean Hip Jerk [m/s3]: Adjusted p-value [3, 6]: 0.01
- Mean Hip Jerk [m/s3]: Adjusted p-value Sig? [3, 6]: ** (** p≤0.01)
- Mean Hip Jerk [m/s3]: Stats [3, 6]: −3.04
- Mean Hip Jerk [m/s3]: p-value [3, 6]: 0.01
- Protraction, Hind [m]: Stats [3, 6]: −4.42
- Retraction, Hind [m]: Stats [3, 6]: 4.26
- Step Width, Fore [mm]: Stats [3, 6]: −2.86
- Ankle Angle, Max [degree]: Stats ([3]; D 8 5 h, vehicle vs. treatment, CBC 10 mg/kg, pregabalin 50 mg/kg): −2.85
- Overall kinematic gait score, Vehicle vs. treatment: Predicted (LS) mean diff. ([3]; D8 5 h, z-score, CBC 10 mg/kg p.o., pregabalin 50 mg/kg i.p.): 1.116
- Overall kinematic gait score, Vehicle vs. treatment: Summary ([3]; D8 9 h, CBC 10 mg/kg p.o., pregabalin 50 mg/kg i.p.): ns
- Overall kinematic gait score, Vehicle vs. treatment: Predicted (LS) mean diff. ([3]; D8 9 h, z-score, CBC 10 mg/kg p.o., pregabalin 50 mg/kg i.p.): 0.654
- Overall kinematic gait score, Vehicle vs. treatment: Summary ([3]; D9, CBC 10 mg/kg p.o., pregabalin 50 mg/kg i.p.): ns
- Overall kinematic gait score, Vehicle vs. treatment: Predicted (LS) mean diff. ([3]; D9, z-score, CBC 10 mg/kg p.o., pregabalin 50 mg/kg i.p.): −0.4602
- Homolateral Interlimb coordination, CBC vs. Vehicle: p ([3]; D9 post-dosing, CBC 10 mg/kg): 0.03
- Ankle ROM: Significance [3, 7]: * (p<0.05, significant)
- Ankle ROM: Statistic [3, 7]: 2.98
- Homolateral: Significance [3, 7]: * (p<0.05, significant)
- Homolateral: Statistic [3, 7]: 2.84
- Knee ROM: Significance [3, 7]: * (p<0.05, significant)
- Knee ROM: Statistic [3, 7]: 2.88
- Swing Speed: Significance [3, 7]: ** (p<0.01, very significant)
- Swing Speed: Statistic [3, 7]: −3.67
- Ankle Angle. Max: Significance [3, 8]: * (p<0.05, significant)
- Ankle Angle. Max: Statistic [3, 8]: −2.85
- Hip Angle. Max: Significance [3, 8]: *** (p<0.001, extremely/highly significant)
- Hip Angle. Max: Statistic [3, 8]: 4.29
- Knee Angle. Min: Significance [3, 8]: ** (p<0.01, very significant)
- Knee Angle. Min: Statistic [3, 8]: 3.78
- Mean Hip Jerk: Significance [3, 8]: * (p<0.05, significant)
- Mean Hip Jerk: Statistic [3, 8]: −3.04
- Mean Hip Jerk: p-value [3, 8]: 0.00953
- Protraction. Hind: Significance [3, 8]: *** (p<0.001, extremely/highly significant)
- Protraction. Hind: Statistic [3, 8]: −4.42
- Retraction. Hind: Significance [3, 8]: *** (p<0.001, extremely/highly significant)
- Retraction. Hind: Statistic [3, 8]: 4.26
- Step Width. Fore: Significance [3, 8]: * (p<0.05, significant)
- Step Width. Fore: Statistic [3, 8]: −2.86
- Support Metric gait variables compared to Vehicle ([3]; baseline to D9, CBC 10 mg/kg): No statistical significance was observed
- Overall kinematic gait score, D7 vs. D8 5 h: Summary [3, 9]: ns
- Overall kinematic gait score, D7 vs. D8 9 h: Summary [3, 9]: ns
- Overall kinematic gait score, D7 vs. D9: Summary [3, 9]: ns
- Overall kinematic gait score, D7 vs. Baseline: Summary ([3]; within group, before dosing): ** (p<0.01, very significant)
- Overall kinematic gait score, D7 vs. D8 5 h: Predicted (LS) mean diff. [3, 10]: −0.5337
- Overall kinematic gait score, D7 vs. D8 9 h: Predicted (LS) mean diff. [3, 10]: −1.516
- Overall kinematic gait score, D7 vs. D9: Predicted (LS) mean diff. [3, 10]: −1.619
- Overall kinematic gait score, D7 vs. Baseline: Predicted (LS) mean diff. ([3]; within group, z-score, before dosing): 2.236
- adverse effects [4]: no hyper-reactivity or psychoactive adverse effects
